PubChem BioAssay AID248 (DTP/NCI, 2004)
“And” between values parts separate entries of the source, which are not always exact repeats. Equal entries are not always repeated. Inconclusive results and toxic doses are left out. No stated cut-off is given here; in the data, active means T/C of 150% or more; inactive means T/C below 125%.

Tested on: L1210 leukemia ip in BDF1 mice, survival T/C
Experiment: NCI In Vivo Anticancer Drug Screen. Data for tumor model L1210 Leukemia (intraperitoneal) in B6D2F1 (BDF1) mice
Details: endpoint: mean survival time, higher = longer survival
Outline: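 Tumor was transplanted into mice, which were then dosed with test compound or vehicle alone. Survival was recorded for each group, and the treated figure was expressed relative to the control figure.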

[1] = dose: 100.0 mg/kg/injection, schedule: Q04DX003 (ip), vehicle: saline with Tween-80
[2] = dose: 200.0 mg/kg/injection, schedule: Q04DX003 (ip), vehicle: saline with Tween-80
[3] = dose: 400.0 mg/kg/injection, schedule: Q04DX003 (ip), vehicle: saline with Tween-80
[4] = dose: 100.0 mg/kg/injection, schedule: Q04DX003 (ip), vehicle: saline
[5] = dose: 200.0 mg/kg/injection, schedule: Q04DX003 (ip), vehicle: saline
[6] = dose: 100.0 mg/kg/injection, schedule: Q04DX003 (ip), vehicle: Klucel (hydroxypropylcellulose) (HPC)

Measured: T/C

Nc1[nH]cnc(=S)c1NC=O
inactive: dose: 100.0 mg/kg/injection, schedule: Q01DX001 (ip), vehicle: acetone 92 % of control | dose: 200.0 mg/kg/injection, schedule: Q01DX001 (ip), vehicle: acetone 92 % of control | dose: 400.0 mg/kg/injection, schedule: Q01DX001 (ip), vehicle: acetone 88 % of control

CN=C1N[N+]2=CCCCC2(C)S1 (configuration not stated)
inactive: dose: 0.2 mg/kg/injection, schedule: Q03HX024 (ip), vehicle: saline 96 % of control | dose: 0.39 mg/kg/injection, schedule: Q03HX024 (ip), vehicle: saline 100 % of control | dose: 0.78 mg/kg/injection, schedule: Q03HX024 (ip), vehicle: saline 93 % of control | dose: 1.56 mg/kg/injection, schedule: Q03HX024 (ip), vehicle: saline 95 % of control | dose: 3.13 mg/kg/injection, schedule: Q03HX024 (ip), vehicle: saline 101 % of control

COC(=O)C1CC[N-]CC1.COC(=O)C1CC[N-]CC1.[Cl][Pt+2][Cl]
inactive: [1] 106 % of control | [2] 106 % of control | [3] 106 % of control

CCCCC(C=NCC(CCCC)(CCN(C)C)c1cccc2ccccc12)(CCN(C)C)c1cccc2ccccc12 (configuration not stated)
inactive: dose: 6.25 mg/kg/injection, schedule: Q04DX002 (ip), vehicle: Klucel (hydroxypropylcellulose) (HPC) 89 % of control | dose: 12.5 mg/kg/injection, schedule: Q04DX002 (ip), vehicle: Klucel (hydroxypropylcellulose) (HPC) 89 % of control | dose: 25.0 mg/kg/injection, schedule: Q04DX002 (ip), vehicle: Klucel (hydroxypropylcellulose) (HPC) 92 % of control

C=C1C(=O)OC2CC(C)CCC/C(CO)=C/C(OC(=O)/C(=C/CO)CO)C12 (configuration not stated)
inactive: dose: 3.75 mg/kg/injection, schedule: Q04DX003 (ip), vehicle: saline 89 % of control | dose: 4.9 mg/kg/injection, schedule: Q01DX009 (ip), vehicle: acetone 93 % of control | dose: 7.5 mg/kg/injection, schedule: Q01DX001 (ip), vehicle: acetone 97 % of control | dose: 7.5 mg/kg/injection, schedule: Q01DX009 (ip), vehicle: acetone 98 % of control | dose: 7.5 mg/kg/injection, schedule: Q04DX003 (ip), vehicle: saline 100 % of control | dose: 11.0 mg/kg/injection, schedule: Q01DX009 (ip), vehicle: acetone 93 % of control | dose: 15.0 mg/kg/injection, schedule: Q01DX001 (ip), vehicle: acetone 103 % of control | dose: 15.0 mg/kg/injection, schedule: Q04DX003 (ip), vehicle: saline 99 % of control

O=C(c1ccc(Cl)cc1Cl)C(CS(=O)(=O)O)CS(=O)(=O)O
inactive: [1] 99 % of control | [2] 98 % of control | [3] 100 % of control

C/C(=C/C(=O)O)c1cc2ccccc2n1C
inactive: [1] 100 % of control | [2] 92 % of control | [3] 96 % of control

CCc1c(Nc2ccc(C)c(C)c2)[nH]c(N)nc1=S
inactive: dose: 100.0 mg/kg/injection, schedule: Q01DX Z (ip), vehicle: methylcellulose (MC) 87 % of control | dose: 200.0 mg/kg/injection, schedule: Q01DX Z (ip), vehicle: methylcellulose (MC) 109 % of control

O=C(Oc1ccc([N+](=O)[O-])cc1)c1ccc(C[n+]2ccccc2)cc1
inactive: dose: 50.0 mg/kg/injection, schedule: Q01DX009 (ip), vehicle: saline 97 % of control | dose: 100.0 mg/kg/injection, schedule: Q01DX009 (ip), vehicle: saline 97 % of control and 104 % of control | [4] 97 % of control | dose: 200.0 mg/kg/injection, schedule: Q01DX009 (ip), vehicle: saline 100 % of control and 106 % of control | [5] 90 % of control

N#CCc1c(Cl)ccc(Cl)c1Cl
inactive: dose: 12.0 mg/kg/injection, schedule: Q01DX009 (ip), vehicle: Klucel (hydroxypropylcellulose) (HPC) 97 % of control | dose: 25.0 mg/kg/injection, schedule: Q01DX009 (ip), vehicle: Klucel (hydroxypropylcellulose) (HPC) 100 % of control | dose: 25.0 mg/kg/injection, schedule: Q04DX003 (ip), vehicle: Klucel (hydroxypropylcellulose) (HPC) 97 % of control | dose: 50.0 mg/kg/injection, schedule: Q01DX009 (ip), vehicle: Klucel (hydroxypropylcellulose) (HPC) 94 % of control | dose: 50.0 mg/kg/injection, schedule: Q04DX003 (ip), vehicle: Klucel (hydroxypropylcellulose) (HPC) 98 % of control | [6] 101 % of control and 87 % of control

CS(=O)(=O)OCCCc1nc2ccccc2n1S(C)(=O)=O
inactive: dose: 100.0 mg/kg/injection, schedule: Q01DX001 (ip), vehicle: carboxymethylcellulose (CMC) 110 % of control | dose: 200.0 mg/kg/injection, schedule: Q01DX001 (ip), vehicle: carboxymethylcellulose (CMC) 110 % of control | dose: 400.0 mg/kg/injection, schedule: Q01DX001 (ip), vehicle: carboxymethylcellulose (CMC) 104 % of control

C=CC1CN2CCC1CC2C(=O)c1ccnc2ccccc12 (configuration not stated)
inactive: dose: 50.0 mg/kg/injection, schedule: Q01DX001 (ip), vehicle: saline 101 % of control | dose: 100.0 mg/kg/injection, schedule: Q01DX001 (ip), vehicle: saline 104 % of control | dose: 200.0 mg/kg/injection, schedule: Q01DX001 (ip), vehicle: saline 106 % of control | dose: 400.0 mg/kg/injection, schedule: Q01DX001 (ip), vehicle: saline 98 % of control

COC1OC(CBr)C(OC(C)=O)C(OC(C)=O)C1OC(C)=O (configuration not stated)
inactive: [1] 93 % of control | [2] 98 % of control | [3] 98 % of control

C=CCCCCCCCC[CH2][Sn]([Cl])([Cl])[Cl]
inactive: dose: 50.0 mg/kg/injection, schedule: Q04DX003 (ip), vehicle: saline 93 % of control | [4] 101 % of control

CCCOC(=O)N(CC)C(=NCC)c1ccc(NC(=O)c2ccc(C(=O)Nc3ccc(C(=NCC)N(CC)C(=O)OCCC)cc3)cc2)cc1
inactive: dose: 2.5 mg/kg/injection, schedule: Q01DX015 (ip), vehicle: methylcellulose (MC) 95 % of control | dose: 5.0 mg/kg/injection, schedule: Q01DX015 (ip), vehicle: methylcellulose (MC) 101 % of control | dose: 10.0 mg/kg/injection, schedule: Q01DX015 (ip), vehicle: methylcellulose (MC) 101 % of control | dose: 20.0 mg/kg/injection, schedule: Q01DX015 (ip), vehicle: methylcellulose (MC) 109 % of control | dose: 37.5 mg/kg/injection, schedule: Q01DX015 (ip), vehicle: methylcellulose (MC) 112 % of control | dose: 75.0 mg/kg/injection, schedule: Q01DX015 (ip), vehicle: methylcellulose (MC) 90 % of control | dose: 150.0 mg/kg/injection, schedule: Q01DX015 (ip), vehicle: methylcellulose (MC) 92 % of control | dose: 300.0 mg/kg/injection, schedule: Q01DX015 (ip), vehicle: methylcellulose (MC) 93 % of control

O=S(=O)(O)c1cc(O)c(S(=O)(=O)O)cc1O
inactive: [4] 98 % of control | [5] 92 % of control | dose: 400.0 mg/kg/injection, schedule: Q04DX003 (ip), vehicle: saline 110 % of control

Cc1cc(Oc2nc(Cl)nc(C(Cl)(Cl)Cl)c2Cl)cc(C)c1N(C)C (tested in a mixture with another compound)
inactive: [6] 91 % of control | dose: 200.0 mg/kg/injection, schedule: Q04DX003 (ip), vehicle: Klucel (hydroxypropylcellulose) (HPC) 105 % of control

CCCCCCCCCCCCCCCCS(=O)(=O)Nc1cc(C(=O)NN)cc(C(=O)NN)c1
inactive: [1] 90 % of control | [2] 86 % of control | [3] 88 % of control

O=C(c1ccccc1)c1ccc2c3c(cccc13)C(=O)c1ccccc1-2
inactive: dose: 100.0 mg/kg/injection, schedule: Q01DX001 (ip), vehicle: saline with Tween-80 92 % of control | dose: 200.0 mg/kg/injection, schedule: Q01DX001 (ip), vehicle: saline with Tween-80 92 % of control | dose: 400.0 mg/kg/injection, schedule: Q01DX001 (ip), vehicle: saline with Tween-80 88 % of control
